Like-named read-outs stand apart in the source and are kept apart here. Bridge positions count the residues as written; N and C are the ends. Square brackets hold non-standard residues; d marks the D form. Peptide text beside a SMILES is read from it. * marks the point of attachment. Phe(4-guanidino) = N=C(N)Nc1ccc(C[C@H](N)C(=O)O)cc1; Butanoyl(4-guanidino) = N=C(N)NCCCC(=O)*; Propanoyl(3-guanidino) = N=C(N)NCCC(=O)*; X1 = N=C(N)N[C@@H](Cc1ccccc1)C(=O)*
Tests used:
S. agalactiae ATCC 27591 = assay: microbe, parasite or virus in culture; format: cell-based
Method: (§1) Bacterial strains used in this study were the Gram-positive S. aureus ATCC 25923, S. epidermidis ATCC 12228, B. megaterium BM11, S. [NT] 27591, E. faecalis ATCC 29212 and the Gram-negative E. coli ATCC 25922, P. aeruginosa ATCC 27853, A. baumannii ATCC 19606, E. coli D21 and P. aeruginosa PAO1. […] Bacterial cells in the mid log phase were diluted in Muller Hinton (MH) at a concentration of 2 × 10^6 cell/mL. […] Ciprofloxacin was used as antibiotic control. The plate was then incubated at 37 °C. MICs were obtained from three identical readings of four independent experiments.

E. coli D21 = assay: microbe, parasite or virus in culture; format: cell-based
Method: as §1

E. faecalis ATCC 29212 = assay: microbe, parasite or virus in culture; format: cell-based
Method: as §1

A. baumannii ATCC 19606 = assay: microbe, parasite or virus in culture; format: cell-based
Method: as §1

P. aeruginosa ATCC 27853 = assay: microbe, parasite or virus in culture; format: cell-based
Method: as §1

E. coli ATCC 25922 = assay: microbe, parasite or virus in culture; format: cell-based
Method: as §1

[1] = system: S. epidermidis ATCC 12228; assay: microbe, parasite or virus in culture; format: cell-based
Method: as §1

S. aureus ATCC 25923 = assay: microbe, parasite or virus in culture; format: cell-based
Method: as §1

B. megaterium BM11 = assay: microbe, parasite or virus in culture; format: cell-based
Method: as §1

P. aeruginosa PAO1 = assay: microbe, parasite or virus in culture; format: cell-based
Method: as §1

[2] = format: cell-based, human; conditions: human; for viability at 2 h, 3.12 µM / viability at 2 h, 6.25 µM / viability at 2 h, 12.5 µM / viability at 2 h, 25 µM / viability at 2 h, 50 µM / viability at 2 h, 100 µM / viability at 24 h, 3.12 µM / viability at 24 h, 6.25 µM / viability at 24 h, 12.5 µM / viability at 24 h, 25 µM / viability at 24 h, 50 µM / viability at 24 h, 100 µM: Cell viability (%)
Method: (§2) For the evaluation of peptides’ cytotoxicity, the human immortalized keratinocytes (HaCaT cells), purchased from AddexBio (San Diego, CA, USA), and BEAS-2B were used. HaCaT cells were cultured in Dulbecco’s modified Eagle’s medium supplemented with 4 mM glutamine (DMEM), 10% heat-inactivated fetal bovine serum (FBS), and 0.1 mg/mL of penicillin and streptomycin, at 37 °C and 5% CO2. BEAS-2B cells were cultured in RPMI, supplemented with 2 mM glutamine (DMEM), 10% heat-inactivated fetal bovine serum (FBS), 1 mM sodium pyruvate, and 0.1 mg/mL of penicillin and streptomycin, at 37 °C and 5% CO2. Cytotoxicity was tested in vitro using a colorimetric assay that relies on the intracellular reduction of the yellow 3-(4,5-dimethylthiazol-2-yl)-2,5-diphenyltetrazolium bromide salt (MTT) by mitochondrial dehydrogenases of metabolically active cells in formazan crystals (purple). About 4 × 10^4 HaCaT and BEAS-2B cells, suspended in DMEM supplemented with 2% FBS, were plated in triplicate wells of a 96-well microtiter plate. The plate was incubated overnight at 37 °C and 5% CO2. Then, the cells were treated with different concentrations of the peptide (from 100 to 3.12 μM) in a fresh serum-free medium for 2 h and for a longer time (24 h). Following peptide treatment, the medium was removed, and MTT (0.5 mg/mL) solution in Hank’s buffer (136 mM NaCl, 4.2 mM Na2HPO4, 4.4 mM KH2PO4, 5.4 mM KCl, 4.1 mM NaHCO3, pH 7.2, supplemented with 20 mM D-glucose) was added to each well of the plate, that was then incubated for 4 h at 37 °C and 5% CO2. The purple formazan crystals were dissolved using acidified 2-propanol and a microplate reader (Infinite M200; Tecan, Salzburg, Austria) was used to measure the absorbance of each well at 570 nm. The percentage of cell viability was calculated compared to the control, which consisted of cells without any peptide treatment (corresponding to 100% viability) and all data represent the mean of three independent experiments ± SEM.

circular dichroism = conditions: water; pH ns; 25 °C; 150 uM
[3] = system: human keratinocytes (HaCaT cells); format: cell-based
Method: as §2

Row | Structure (SMILES) | viability at 2 h, 3.12 µM [2] | viability at 2 h, 6.25 µM [2] | viability at 2 h, 12.5 µM [2] | viability at 2 h, 25 µM [2] | viability at 2 h, 50 µM [2] | viability at 2 h, 100 µM [2] | viability at 24 h, 3.12 µM [2] | viability at 24 h, 6.25 µM [2] | viability at 24 h, 12.5 µM [2] | viability at 24 h, 25 µM [2] | viability at 24 h, 100 µM [2] | helicity (circular dichroism) | MIC (S. agalactiae ATCC 27591; ATCC 27591) | MIC (E. coli D21; D21) | MIC (E. faecalis ATCC 29212; ATCC 29212) | MIC (A. baumannii ATCC 19606; ATCC 19606) | MIC (P. aeruginosa ATCC 27853; ATCC 27853) | MIC (E. coli ATCC 25922; ATCC 25922) | MIC ([1]; ATCC 12228) | MIC (S. aureus ATCC 25923; ATCC 25923) | also measured
1 | O=C(O)c1cn(C2CC2)c2cc(N3CCNCC3)c(F)cc2c1=O [Ciprofloxacin, reference compound] |  |  |  |  |  |  |  |  |  |  |  |  |  |  |  |  |  |  |  |  | MIC (S. agalactiae ATCC 27591; Streptococcus agalactiae, ATCC27591, S. agalactiae ATCC 27591, antibiotic control, read-out: MIC): 0.5 µg/mL; MIC (E. coli D21; Escherichia coli, E. coli D21, antibiotic control, read-out: MIC): 0.01 µg/mL; MIC (E. faecalis ATCC 29212; Enterococcus faecalis, ATCC29212, E. faecalis ATCC 29212, antibiotic control, read-out: MIC): 0.5 µg/mL; MIC (A. baumannii ATCC 19606; Acinetobacter baumannii, ATCC19606, A. baumannii ATCC 19606, antibiotic control, read-out: MIC): 1 µg/mL; MIC (P. aeruginosa ATCC 27853; Pseudomonas aeruginosa, ATCC27853, P. aeruginosa ATCC 27853, antibiotic control, read-out: MIC): 0.5 µg/mL; MIC (E. coli ATCC 25922; Escherichia coli, ATCC25922, E. coli ATCC 25922, antibiotic control, read-out: MIC): 0.01 µg/mL; MIC ([1]; Staphylococcus epidermidis, ATCC12228, S. epidermidis ATCC 12228, antibiotic control, read-out: MIC): 0.25 µg/mL; MIC (S. aureus ATCC 25923; Staphylococcus aureus, ATCC25923, S. aureus ATCC 25923, antibiotic control, read-out: MIC): 0.5 µg/mL; MIC (B. megaterium BM11; Priestia megaterium, B. megaterium BM11, antibiotic control, read-out: MIC): 0.12 µg/mL; MIC (P. aeruginosa PAO1; Pseudomonas aeruginosa, P. aeruginosa PAO1, antibiotic control, read-out: MIC): 0.12 µg/mL
2 | CC[C@H](C)[C@H](NC(=O)[C@H](CCCNC(=N)N)NC(=O)[C@H]1CCC(=O)NCCCC[C@H](NC(=O)[C@H](Cc2ccccc2)NC(=O)[C@H](Cc2c[nH]c3ccccc23)NC(=O)[C@@H]2CCCN2C(=O)[C@@H](NC(=O)[C@H](Cc2ccccc2)NC(=N)N)C(C)C)C(=O)N[C@@H](CCCCN)C(=O)N[C@@H](Cc2ccccc2)C(=O)N[C@H](CC(C)C)C(=O)N1)C(=O)N[C@@H](CC(C)C)C(N)=O [Peptide 3, guanidino-FVPWF[KKFle]RIL] (X1-VPWFKKF[dL][dE]RIL-NH2; lactam 5-9) | 126% | 137% | 125% | 104% | 52% | 5% | 93 ± 9% | 105 ± 2% | 107 ± 8% | 86 ± 5% | 4 ± 1% | 1% | 3.12 µM | 6.25 µM | 25 µM | 3.12 µM | 100 µM | 6.25 µM | 3.12 µM | 6.25 µM | CC50 at 24 h [2]: 38.6 µM; viability at 24 h, 50 µM [2]: 29 ± 2%; MIC (B. megaterium BM11; BM11): 0.78 µM; MIC (P. aeruginosa PAO1; PAO1): 50 µM
3 | CC[C@H](C)[C@H](NC(=O)[C@H](CCCNC(=N)N)NC(=O)[C@H]1CCC(=O)NCCCC[C@H](NC(=O)[C@H](Cc2ccccc2)NC(=O)[C@H](Cc2c[nH]c3ccccc23)NC(=O)[C@@H]2CCCN2C(=O)[C@@H](NC(=O)[C@H](Cc2ccccc2)NC(=O)CCNC(=N)N)C(C)C)C(=O)N[C@@H](CCCCN)C(=O)N[C@@H](Cc2ccccc2)C(=O)N[C@H](CC(C)C)C(=O)N1)C(=O)N[C@@H](CC(C)C)C(N)=O [Peptide 4, guanidino-βAla-FVPWF[KKFle]RIL] ({Propanoyl(3-guanidino)}-FVPWFKKF[dL][dE]RIL-NH2; lactam 6-10) | 100% | 100% | 100% | 47% | 7% | 8% | 98 ± 1% | 93 ± 2% | 88 ± 4% | 21 ± 3% | 0% | 12% | 1.56 µM | 6.25 µM | 6.25 µM | 3.12 µM | 25 µM | 3.12 µM | 1.56 µM | 3.12 µM | CC50 at 24 h [2]: 19.4 µM; viability at 24 h, 50 µM [2]: 0%; MIC (B. megaterium BM11; BM11): 0.78 µM; MIC (P. aeruginosa PAO1; PAO1): 25 µM
4 | CC[C@H](C)[C@H](NC(=O)[C@H](CCCNC(=N)N)NC(=O)[C@H]1CCC(=O)NCCCC[C@H](NC(=O)[C@H](Cc2ccccc2)NC(=O)[C@H](Cc2c[nH]c3ccccc23)NC(=O)[C@@H]2CCCN2C(=O)[C@@H](NC(=O)[C@H](Cc2ccccc2)NC(=O)CCCNC(=N)N)C(C)C)C(=O)N[C@@H](CCCCN)C(=O)N[C@@H](Cc2ccccc2)C(=O)N[C@H](CC(C)C)C(=O)N1)C(=O)N[C@@H](CC(C)C)C(N)=O [Peptide 5, guanidino-GABA-FVPWF[KKFle]RIL] ({Butanoyl(4-guanidino)}-FVPWFKKF[dL][dE]RIL-NH2; lactam 6-10) | 128% | 126% | 128% | 76% | 18% | 4% | 116 ± 7% | 137 ± 15% | 147 ± 15% | 58 ± 6% | 1 ± 1% | 16% | 1.56 µM | 6.25 µM | 6.25 µM | 3.12 µM | 50 µM | 6.25 µM | 3.12 µM | 3.12 µM | CC50 at 24 h [2]: 24.6 µM; viability at 24 h, 50 µM [2]: 1 ± 1%; MIC (B. megaterium BM11; BM11): 0.78 µM; MIC (P. aeruginosa PAO1; PAO1): 25 µM
5 | CC[C@H](C)[C@H](NC(=O)[C@H](CCCNC(=N)N)NC(=O)[C@H]1CCC(=O)NCCCC[C@H](NC(=O)[C@H](Cc2ccc(NC(=N)N)cc2)NC(=O)[C@H](Cc2c[nH]c3ccccc23)NC(=O)[C@@H]2CCCN2C(=O)[C@@H](NC(=O)[C@@H](N)Cc2ccccc2)C(C)C)C(=O)N[C@@H](CCCCN)C(=O)N[C@@H](Cc2ccccc2)C(=O)N[C@H](CC(C)C)C(=O)N1)C(=O)N[C@@H](CC(C)C)C(N)=O [Peptide 8, FVPW(p-guanidino)F[KKFle]RIL] (H-FVPW[Phe(4-guanidino)]KKF[dL][dE]RIL-NH2; lactam 6-10) | 111% | 112% | 115% | 110% | 92% | 63% | 101 ± 4% | 105 ± 6% | 110 ± 3% | 124 ± 1% | 58 ± 9% | 7% | 3.12 µM | 6.25 µM | 25 µM | 6.25 µM | 50 µM | 12.5 µM | 6.25 µM | 25 µM | MIC (B. megaterium BM11; BM11): 0.78 µM; MIC (P. aeruginosa PAO1; PAO1): 25 µM
6 | CC[C@H](C)[C@H](NC(=O)[C@H](CCCNC(=N)N)NC(=O)[C@@H]1CCCNC(=N)NCCC[C@H](NC(=O)[C@H](Cc2ccccc2)NC(=O)[C@H](Cc2c[nH]c3ccccc23)NC(=O)[C@@H]2CCCN2C(=O)[C@@H](NC(=O)[C@@H](N)Cc2ccccc2)C(C)C)C(=O)N[C@@H](CCCCN)C(=O)N[C@@H](Cc2ccccc2)C(=O)N[C@H](CC(C)C)C(=O)N1)C(=O)N[C@@H](CC(C)C)C(N)=O [Peptide 13, FVPWF{OrnKFlOrn}RIL] | 107% | 104% | 76% | 31% | 7% | 2% | 103 ± 2% | 103 ± 3% | 97 ± 2% | 22 ± 2% | 3 ± 1% | 10% | 1.56 µM | 6.25 µM | 6.25 µM | 1.56 µM | 50 µM | 6.25 µM | 1.56 µM | 6.25 µM | CC50 at 24 h [2]: 19.7 µM; viability at 24 h, 50 µM [2]: 2 ± 1%; cytotoxicity (in words) [3]: Low cytotoxicity (up to 25 μM); MIC (B. megaterium BM11; BM11): 0.39 µM

Reference: PMC12703733, “Probing Guanidino Pendant or Bridged Groups in Cyclic Antimicrobial Peptides Derived from Temporin L: A Strategy to Improve Efficacy against Gram-Negative Bacteria” (Journal of Medicinal Chemistry, 2025)
